PubChem BioAssay (NCI)
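Assay format: 96-well plates, 48-hour exposure. Definition used: TGI = concentration required for complete inhibition of growth.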

Columns and labels:
Assay in all cases: growth of human tumour cells (NCI), 48 h
[1] = test system: RPMI-8226 leukemia
[2] = test system: HL-60(TB) leukemia
[3] = test system: SR leukemia
[4] = test system: MOLT-4 leukemia
[5] = test system: A498 renal
[6] = test system: SK-MEL-28 melanoma
[7] = test system: HCC-2998 colon
[8] = test system: NCI-H460 lung
[9] = test system: 786-0 renal
[10] = test system: HOP-92 NSCLC
[11] = test system: MDA-N
[12] = test system: RXF 393 renal
[13] = test system: HOP-62 NSCLC

SMILES: S=C1N=C(Cl)/C(=C\c2ccccc2)N1
- TGI [1]: > 100 µM
- TGI [2]: > 100 µM
- TGI [3]: > 100 µM
- TGI [4]: > 100 µM
- TGI [5]: > 100 µM
- TGI [6]: > 100 µM
- TGI [7]: > 100 µM
- TGI [8]: > 100 µM
- TGI [9]: > 100 µM
- TGI [10]: > 100 µM
- TGI [11]: > 100 µM
- TGI [12]: > 100 µM
- TGI [13]: > 100 µM

SMILES: N#CC(C#N)=Cn1c(=S)[nH]c2ccccc21
- TGI [1]: > 100 µM
- TGI [2]: > 100 µM
- TGI [3]: > 100 µM
- TGI [4]: > 100 µM
- TGI [5]: > 100 µM
- TGI [6]: > 100 µM
- TGI [7]: > 100 µM
- TGI [8]: > 100 µM
- TGI [9]: > 100 µM
- TGI [10]: > 100 µM
- TGI [11]: > 100 µM
- TGI [12]: > 100 µM
- TGI [13]: > 100 µM

SMILES: CCOC(=O)/C(C#N)=C/c1ccc2c(c1)CC1(C2)Cc2cc(CC)c(C(C)O)cc2C1 (centres undefined)
- TGI [1]: 51.6 µM
- TGI [2]: 8.51 µM
- TGI [3]: > 28.9 µM
- TGI [4]: > 58.6 µM
- TGI [5]: > 90.4 µM
- TGI [6]: 38.9 µM
- TGI [7]: > 80.9 µM
- TGI [8]: 77.1 µM
- TGI [9]: 39 µM
- TGI [10]: 47.9 µM
- TGI [11]: 5.16 µM
- TGI [12]: 38.5 µM
- TGI [13]: 36 µM

SMILES: CC[C@@H]1/C=C/C=C/C[C@H](C)[C@@H](O)[C@](C)(O)C(=O)[C@H](C)[C@@H](O)[C@H](C)C(=O)[C@H](C)[C@@H](O)[C@H](C)/C=C/C(=O)O[C@H]2[C@@H](C)[C@@H](CC1)O[C@@]1(CC[C@@H](C)[C@@H](CC(C)O)O1)[C@@H]2C (some centres undefined)
- TGI [1]: 10.3 µM
- TGI [2]: 4.25 µM
- TGI [3]: 13 µM
- TGI [4]: 6.26 µM
- TGI [5]: 9.12 µM
- TGI [6]: 25.3 µM
- TGI [7]: 6.68 µM
- TGI [8]: 4.25 µM
- TGI [9]: 4.45 µM
- TGI [10]: 6.11 µM
- TGI [11]: 6.72 µM
- TGI [12]: 4.06 µM
- TGI [13]: 5.47 µM

SMILES: CC1(C)[C@H]2Cc3cc(-c4cc5c(cn4)[C@@H]4C[C@H]([C@@H]5[C@@H]5c6cc(-c7cc8c(cn7)[C@@H]7C[C@H](C8)C7(C)C)ncc6[C@@H]6C[C@H]5C6(C)C)C4(C)C)ncc3[C@@H]1C2
- TGI [1]: > 100 µM
- TGI [2]: > 100 µM
- TGI [3]: > 100 µM
- TGI [4]: > 100 µM
- TGI [5]: > 100 µM
- TGI [6]: > 100 µM
- TGI [7]: > 100 µM
- TGI [8]: > 100 µM
- TGI [9]: > 100 µM
- TGI [10]: > 100 µM
- TGI [11]: > 100 µM
- TGI [12]: > 100 µM
- TGI [13]: > 100 µM

SMILES: CN(C)CC1CN=C(NC(=O)Nc2ccccc2)O1 (centres undefined)
- TGI [1]: > 100 µM
- TGI [2]: > 100 µM
- TGI [3]: > 100 µM
- TGI [4]: > 100 µM
- TGI [5]: > 100 µM
- TGI [6]: > 100 µM
- TGI [7]: > 100 µM
- TGI [8]: > 100 µM
- TGI [9]: > 100 µM
- TGI [10]: > 100 µM
- TGI [11]: > 100 µM
- TGI [12]: > 100 µM
- TGI [13]: > 100 µM

SMILES: COC(=O)c1ccc(NCc2cc(O)ccc2O)cc1
- TGI [1]: 34.7 µM
- TGI [2]: 8.58 µM
- TGI [3]: > 32.4 µM
- TGI [4]: 31.5 µM
- TGI [5]: 29.7 µM
- TGI [6]: 34.8 µM
- TGI [7]: 29.5 µM
- TGI [8]: 52.2 µM
- TGI [9]: 22.3 µM
- TGI [10]: 29.1 µM
- TGI [11]: 19 µM
- TGI [12]: 20.2 µM
- TGI [13]: 30.9 µM

SMILES: COc1cc(C(=O)Oc2c(C#N)sc3c2c(=O)n(-c2ccccc2)c(=S)n3-c2ccccc2)cc(OC)c1OC
- TGI [1]: 28.2 µM
- TGI [2]: 41.3 µM
- TGI [3]: > 100 µM
- TGI [4]: 40.6 µM
- TGI [5]: 19.6 µM
- TGI [6]: 46.3 µM
- TGI [7]: 45.2 µM
- TGI [8]: 68.1 µM
- TGI [9]: > 100 µM
- TGI [10]: 64.4 µM
- TGI [11]: > 100 µM
- TGI [12]: 47.9 µM
- TGI [13]: 48.3 µM

SMILES: C=C(C)C12CC3CC/C(=N/O)C(C1)C3(N1CCOCC1)C/C2=N/O (centres undefined)
- TGI [1]: > 100 µM
- TGI [2]: > 100 µM
- TGI [3]: > 100 µM
- TGI [4]: > 100 µM
- TGI [5]: > 100 µM
- TGI [6]: > 100 µM
- TGI [7]: > 100 µM
- TGI [8]: > 100 µM
- TGI [9]: > 100 µM
- TGI [10]: > 100 µM
- TGI [11]: > 100 µM
- TGI [12]: > 100 µM
- TGI [13]: > 100 µM

SMILES: O=c1[nH]c2c(c(=O)[nH]1)SSC2
- TGI [1]: 6.83 µM
- TGI [2]: 32.6 µM
- TGI [3]: 2.09 µM
- TGI [4]: 4.79 µM
- TGI [5]: 52 µM
- TGI [6]: 18.7 µM
- TGI [7]: 30.5 µM
- TGI [8]: 27.2 µM
- TGI [9]: 17.5 µM
- TGI [10]: 10.7 µM
- TGI [11]: 3.17 µM
- TGI [12]: 28.5 µM
- TGI [13]: 23.5 µM

SMILES: CC(=O)O[C@@H](C1C[C@@H](C)[C@H]2[C@@](O)(O1)[C@H](O)[C@@]1(C)C3=CC[C@H]4C(C)(C)[C@@H](OC5OCC(O)C(O)C5O)CC[C@@]45C[C@@]35CC[C@]21C)C(C)(C)O (some centres undefined)
- TGI [1]: 59.5 µM
- TGI [2]: 15.3 µM
- TGI [3]: 49.8 µM
- TGI [4]: 44.8 µM
- TGI [5]: 63 µM
- TGI [6]: 57 µM
- TGI [7]: 27.7 µM
- TGI [8]: 40.6 µM
- TGI [9]: 63.6 µM
- TGI [10]: 60.5 µM
- TGI [11]: 73.6 µM
- TGI [12]: 36.9 µM
- TGI [13]: 70.7 µM

SMILES: Cc1cc(-c2nc3cccc(F)c3s2)ccc1N
- TGI [1]: > 100 µM
- TGI [2]: > 100 µM
- TGI [3]: > 74.8 µM
- TGI [4]: > 96.1 µM
- TGI [5]: > 100 µM
- TGI [6]: > 100 µM
- TGI [7]: > 100 µM
- TGI [8]: > 100 µM
- TGI [9]: > 100 µM
- TGI [10]: > 88.2 µM
- TGI [11]: > 100 µM
- TGI [12]: > 100 µM
- TGI [13]: > 100 µM

SMILES: CC#CC(O)(C(=O)OC1CC2CCC(C1)N2C)C1CCCC1 (centres undefined)
- TGI [1]: > 100 µM
- TGI [2]: > 100 µM
- TGI [3]: > 100 µM
- TGI [4]: > 100 µM
- TGI [5]: > 100 µM
- TGI [6]: > 100 µM
- TGI [7]: > 100 µM
- TGI [8]: > 100 µM
- TGI [9]: > 100 µM
- TGI [10]: > 100 µM
- TGI [11]: > 100 µM
- TGI [12]: > 100 µM
- TGI [13]: > 100 µM
